Assay results as given in patent publication US8916702B2 (priority 2012, dated 2014).
Like-named read-outs stand apart in the source and are kept apart here.

System: HCV pseudoparticles (genotype 1a HCV E1 and E2 envelope, H77C isolate)
Test: microbe, parasite or virus in culture
Type: cell-based
Settings: Hepatitis C virus
[1] = Huh-7, 48 h, read-out: Activity (EC50 class), HCV pseudoparticles, Huh7 cells, luciferase 2 days after infection, average of duplicates
[2] = Huh-7, 48 h, read-out: Activity (EC50 class), HCV pseudoparticle infection of Huh7 cells, luciferase 2 days after infection, EC50 expressed as class A/B
[3] = Huh-7, 48 h, HCV pseudoparticle infection of Huh7 cells, luciferase 2 days after infection, average of duplicates
[4] = Huh-7, read-out: Activity (EC50 class), HCV pseudoparticles (genotype 1a, H77C) in Huh7 cells, EC50 expressed as class A/B
[5] = Huh-7, 48 h, HCV pseudoparticles (genotype 1a, H77C) in Huh7 cells, average of duplicate, luciferase 2 days after infection

O=C(NC[C@H](NC(=O)c1ccc(Nc2nc(NC3(c4ccc(Cl)cc4)CC3)nc(OCC(F)(F)F)n2)cc1)C(=O)Cl)C(=O)Nc1ccc(Cl)nc1 [Compound 3739]
EC50 [1]: 0.01 to 10 nM

O=C(NCC[C@H](NC(=O)c1ccc(Nc2nc(NC3(c4ccc(Cl)cc4)CC3)nc(OCC(F)(F)F)n2)cc1)C(=O)O)C(=O)Nc1cccc(-c2cccnc2)c1 [Compound 3652]
EC50 (Huh-7, 48 h, HCV pseudoparticles, Huh7 cells, luciferase 2 days after infection, average of duplicates): 0.45 nM | EC50 [1]: 0.01 to 10 nM

COC(=O)[C@H](CCNC(=O)C(=O)NCc1ccc(F)c(F)c1)NC(=O)c1ccc(Nc2nc(NC3(c4ccc(Cl)cc4)CC3)nc(OCC(F)(F)F)n2)cc1 [Compound 1159]
EC50 [2]: 0.01 to 10 nM

O=C(NCc1cc(F)cc(F)c1)C(=O)NC[C@H](NC(=O)c1ccc(Nc2nc(NC3(c4ccc(Cl)cc4)CC3)nc(OCC(F)(F)F)n2)cc1)C(=O)O [Compound 1173]
EC50 [3]: 0.74 nM | EC50 [2]: 0.01 to 10 nM

CC(C)(CNC(=O)C(=O)Nc1ccc(Cl)c(F)c1)CNC(=O)c1ccc(Nc2nc(NC3(c4ccc(Cl)cc4)CC3)nc(OCC(F)(F)F)n2)cc1 [Compound 3071]
EC50 [4]: 0.01 to 10 nM

O=C(NC[C@H](NC(=O)c1ccc(Nc2nc(NC3(c4ccc(Cl)cc4)CC3)nc(OCC(F)(F)F)n2)cc1)C(=O)O)C(=O)Nc1ccc(Oc2ccccc2)nc1 [Compound 3771]
EC50 [1]: 0.01 to 10 nM

COC(=O)[C@H](CCNC(=O)C(=O)Nc1ccc(Oc2ccccc2)cc1)NC(=O)c1ccc(Nc2nc(NC3(c4ccc(Cl)cc4)CC3)nc(OCC(F)(F)F)n2)cc1 [Compound 3113]
EC50 [5]: 7.77 nM | EC50 [4]: 0.01 to 10 nM

COC(=O)[C@H](CNC(=O)C(=O)NC1CCCCC1)NC(=O)c1ccc(Nc2nc(NC3(c4ccc(Cl)cc4)CC3)nc(OCC(F)(F)F)n2)cc1 [Compound 1132]
EC50 [2]: 0.01 to 10 nM

COC(=O)[C@H](CNC(=O)C(=O)NC1CCCCC1O)NC(=O)c1ccc(Nc2nc(NC3(c4ccc(Cl)cc4)CC3)nc(OCC(F)(F)F)n2)cc1 (stereo partly shown) [Compound 1051]
EC50 [2]: 0.01 to 10 nM

COc1cc2sc(NC(=O)C(=O)NCC(C)(C)CNC(=O)c3ccc(Nc4nc(NC5(c6ccc(Cl)cc6)CC5)nc(OCC(F)(F)F)n4)cc3F)nc2cc1Cl [Compound 3680]
EC50 [1]: 0.01 to 10 nM

COC(=O)[C@H](CNC(=O)C(=O)Nc1cccc(C(F)(F)F)c1)NC(=O)c1ccc(Nc2nc(NC3(c4ccc(Cl)cc4)CC3)nc(OCC(F)(F)F)n2)cc1 [Compound 1251]
EC50 [2]: 0.01 to 10 nM

Cn1ccnc1NC(=O)C(=O)NCC[C@H](NC(=O)c1ccc(Nc2nc(NC3(c4ccc(Cl)cc4)CC3)nc(OCC(F)(F)F)n2)cc1)C(=O)O [Compound 1264]
EC50 [2]: 10 to 1000 nM

CC(C)(CNC(=O)C(=O)Nc1ccc(-c2ccc(-c3ccccc3)cc2)cc1)CNC(=O)c1ccc(Nc2nc(NC3(c4ccc(Cl)cc4)CC3)nc(OCC(F)(F)F)n2)cc1 [Compound 1564]
EC50 [2]: 0.01 to 10 nM

CCc1ccc(NC(=O)C(=O)NCC[C@H](NC(=O)c2ccc(Nc3nc(NC4(c5ccc(Cl)cc5)CC4)nc(OCC(F)(F)F)n3)cc2)C(=O)O)cc1 [Compound 3551]
EC50 [4]: 0.01 to 10 nM

CC(C)(CNC(=O)C(=O)Nc1ccc(Oc2ccccc2)cc1)CNC(=O)c1ccc(Nc2nc(NC3(c4ccc(Cl)cc4)CC3)nc(OCC(F)(F)F)n2)cc1 [Compound 3672]
EC50 [1]: 0.01 to 10 nM

Cc1cc(NC(=O)C(=O)N2CCCC(CNC(=O)c3ccc(Nc4nc(NC5(c6ccc(Cl)cc6)CC5)nc(OCC(F)(F)F)n4)cc3)C2)no1 (stereo not shown) [Compound 3486]
EC50 [5]: 0.32 nM | EC50 [4]: 0.01 to 10 nM

COc1ncccc1NC(=O)C(=O)NCC(C)(C)CNC(=O)c1ccc(Nc2nc(NC3(c4ccc(Cl)cc4)CC3)nc(OCC(F)(F)F)n2)cc1 [Compound 3366]
EC50 [5]: 0.14 nM | EC50 [4]: 0.01 to 10 nM

COC(=O)[C@H](CNC(=O)C(=O)Nc1cccnc1OC)NC(=O)c1ccc(Nc2nc(NC3(c4ccc(Cl)cc4)CC3)nc(OCC(F)(F)F)n2)cc1 [Compound 1240]
EC50 [2]: 0.01 to 10 nM

CC(C)(CNC(=O)C(=O)Nc1ccc(Cc2ccccc2)cc1)CNC(=O)c1ccc(Nc2nc(NC3(c4ccc(Cl)cc4)CC3)nc(OCC(F)(F)F)n2)cc1 [Compound 1579]
EC50 [2]: 0.01 to 10 nM

CC(C)(CNC(=O)C(=O)Nc1ccc2ncccc2c1)CNC(=O)c1ccc(Nc2nc(NC3(c4ccc(Cl)cc4)CC3)nc(OCC(F)(F)F)n2)cc1 [Compound 3038]
EC50 [4]: 0.01 to 10 nM

COC(=O)[C@H](CCNC(=O)C(=O)NC1(Cc2ccccc2)CC1)NC(=O)c1ccc(Nc2nc(NC3(c4ccc(Cl)cc4)CC3)nc(OCC(F)(F)F)n2)cc1 [Compound 1325]
EC50 [2]: 0.01 to 10 nM

O=C(NC[C@H](NC(=O)c1ccc(Nc2nc(NC3(c4ccc(Cl)cc4)CC3)nc(OCC(F)(F)F)n2)cc1)C(=O)O)C(=O)Nc1cccnc1 [Compound 1367]
EC50 [2]: 0.01 to 10 nM

Cn1cnnc1-c1cccc(NC(=O)C(=O)NCC[C@H](NC(=O)c2ccc(Nc3nc(NC4(c5ccc(Cl)cc5)CC4)nc(OCC(F)(F)F)n3)cc2)C(=O)O)c1 [Compound 3643]
EC50 [1]: 10 to 1000 nM

Cn1ccnc1NC(=O)C(=O)NC[C@H](NC(=O)c1ccc(Nc2nc(NC3(c4ccc(Cl)cc4)CC3)nc(OCC(F)(F)F)n2)cc1)C(=O)O [Compound 1352]
EC50 [2]: 0.01 to 10 nM

COC(=O)[C@H](CNC(=O)C(=O)Nc1cccc(OC)c1)NC(=O)c1ccc(Nc2nc(NC3(c4ccc(Cl)cc4)CC3)nc(OCC(F)(F)F)n2)cc1 [Compound 1250]
EC50 [2]: 0.01 to 10 nM

COC(=O)[C@H](CCNC(=O)C(=O)NC1CCN(C(=O)OC(C)(C)C)CC1)NC(=O)c1ccc(Nc2nc(NC3(c4ccc(Cl)cc4)CC3)nc(OCC(F)(F)F)n2)cc1 [Compound 1101]
EC50 [2]: 0.01 to 10 nM

COC(=O)[C@H](CCNC(=O)C(=O)NC1Cc2ccccc2C1)NC(=O)c1ccc(Nc2nc(NC3(c4ccc(Cl)cc4)CC3)nc(OCC(F)(F)F)n2)cc1 [Compound 1314]
EC50 [3]: 0.43 nM | EC50 [2]: 0.01 to 10 nM

COC(=O)[C@H](CNC(=O)C(=O)Nc1cccc(S(=O)(=O)N2CCCCC2)c1)NC(=O)c1ccc(Nc2nc(NC3(c4ccc(Cl)cc4)CC3)nc(OCC(F)(F)F)n2)cc1 [Compound 3717]
EC50 [1]: 0.01 to 10 nM

O=C(NC[C@H](NC(=O)c1ccc(Nc2nc(NC3(c4ccc(Cl)cc4)CC3)nc(OCC(F)(F)F)n2)cc1)C(=O)Cl)C(=O)Nc1cccc(-c2c[nH]cn2)c1 [Compound 3787]
EC50 [1]: 0.01 to 10 nM

COC(=O)[C@H](CCNC(=O)C(=O)Nc1cccc(OCc2ccccc2)c1)NC(=O)c1ccc(Nc2nc(NC3(c4ccc(Cl)cc4)CC3)nc(OCC(F)(F)F)n2)cc1 [Compound 3612]
EC50 [1]: 0.01 to 10 nM

CCOC(=O)[C@H](CNC(=O)C(=O)NC)NC(=O)c1ccc(Nc2nc(NC3(c4ccc(Cl)cc4)CC3)nc(OCC(F)(F)F)n2)cc1 [Compound 1024, (S)-ethyl 2-(4-(4-(1-(4-chlorophenyl)cyclopropylamino)-6-(2,2,2-trifluoroethoxy)-1,3,5-triazin-2-ylamino)benzamido)-3-(2-(methylamino)-2-oxoacetamido)propanoate]
EC50 [2]: 0.01 to 10 nM

COC(=O)[C@H](CCNC(=O)C(=O)N[C@@H](N)C1CC1)NC(=O)c1ccc(Nc2nc(NC3(c4ccc(Cl)cc4)CC3)nc(OCC(F)(F)F)n2)cc1 [Compound 1392]
EC50 [3]: 0.14 nM | EC50 [2]: 0.01 to 10 nM

COC(=O)[C@H](CNC(=O)C(=O)Nc1ccc(-c2ccccc2C)cc1)NC(=O)c1ccc(Nc2nc(NC3(c4ccc(Cl)cc4)CC3)nc(OCC(F)(F)F)n2)cc1 [Compound 3187]
EC50 [4]: 0.01 to 10 nM

COC(=O)[C@H](CCNC(=O)C(=O)N[C@@H]1C[C@@H]2CC[C@H]1C2)NC(=O)c1ccc(Nc2nc(NC3(c4ccc(Cl)cc4)CC3)nc(OCC(F)(F)F)n2)cc1 [Compound 1102]
EC50 [2]: 0.01 to 10 nM

CN(C)C(=O)C(=O)NCC(C)(C)CNC(=O)c1ccc(Nc2nc(NC3(c4ccc(Cl)cc4)CC3)nc(OCC(F)(F)F)n2)cc1 [Compound 1008, N1-(3-(4-(4-(1-(4-chlorophenyl)cyclopropylamino)-6-(2,2,2-trifluoroethoxy)-1,3,5-triazin-2-ylamino)benzamido)-2,2-dimethylpropyl)-N2,N2-dimethyloxalamide]
EC50 [2]: 0.01 to 10 nM

O=C(NCCC(NC(=O)c1ccc(Nc2nc(NC3(c4ccc(Cl)cc4)CC3)nc(OCC(F)(F)F)n2)cc1)C(=O)O)C(=O)Nc1ccc(-c2cc[nH]n2)cc1 (stereo not shown) [Compound 3531]
EC50 [4]: 0.01 to 10 nM

CCC1CCC(NC(=O)C(=O)NC[C@H](NC(=O)c2ccc(Nc3nc(NC4(c5ccc(Cl)cc5)CC4)nc(OCC(F)(F)F)n3)cc2)C(=O)OC)CC1 (stereo partly shown) [Compound 1065]
EC50 [3]: 0.59 nM | EC50 [2]: 0.01 to 10 nM

C[C@H]1[C@H]2C[C@@H](C[C@H]1NC(=O)C(=O)NCC[C@H](NC(=O)c1ccc(Nc3nc(NC4(c5ccc(Cl)cc5)CC4)nc(OCC(F)(F)F)n3)cc1)C(=O)O)C2(C)C [Compound 1130]
EC50 [3]: 0.12 nM | EC50 [2]: 0.01 to 10 nM

COC(=O)[C@H](CNC(=O)C(=O)NCCc1ccccc1)NC(=O)c1ccc(Nc2nc(NC3(c4ccc(Cl)cc4)CC3)nc(OCC(F)(F)F)n2)cc1 [Compound 1284]
EC50 [2]: 0.01 to 10 nM

CC(C)c1ccc(COc2nc(Nc3ccc(C(=O)NCC(C)(C)CNC(=O)C(=O)Nc4ccccc4-c4ccccc4)c(F)c3)nc(NC3(c4ccc(Cl)cc4)CC3)n2)cc1 [Compound 3830, N^1-([1, 1′-biphenyl]-2-yl)-N^2-(3-(4-((4-((1-(4-chlorophenyl)cyclopropyl)amino)-6-((4-isopropylbenzyl)oxy)-1,3,5-triazin-2-yl)amino)-2-fluorobenzamido)-2,2-dimethylpropyl)oxalamide]
EC50 [1]: 0.01 to 10 nM

CCN(CC)CCOc1cccc(NC(=O)C(=O)NC[C@H](NC(=O)c2ccc(Nc3nc(NC4(c5ccc(Cl)cc5)CC4)nc(OCC(F)(F)F)n3)cc2)C(=O)OC)c1 [Compound 3733]
EC50 [1]: 0.01 to 10 nM

CCOCC1(CNC(=O)C(=O)NCC[C@@H](NC(=O)c2ccc(Nc3nc(NC4(c5ccc(Cl)cc5)CC4)nc(OCC(F)(F)F)n3)cc2)C(=O)OC)CC1 [Compound 1379]
EC50 [2]: 0.01 to 10 nM

COC(=O)[C@@H](CCNC(=O)C(=O)NCC1(CN2CCCC2)CC1)NC(=O)c1ccc(Nc2nc(NC3(c4ccc(Cl)cc4)CC3)nc(OCC(F)(F)F)n2)cc1 [Compound 1384]
EC50 [2]: 0.01 to 10 nM
